Assay results taken from ChEMBL document CHEMBL3044719, “Synthesis of pyrazole-based 1,5-diaryl compounds as potent anti-inflammatory agents” (2012).

Key:
Rattus norvegicus [1] = assay: Anti-inflammatory activity in Rattus norvegicus Wistar albino (rat) assessed as growth of carrageenan-induced paw edema after 90 min (reference value: 1.36 +/- 0.070%); format: functional
Rattus norvegicus [2] = assay: Anti-inflammatory activity in Rattus norvegicus Wistar albino (rat) assessed as growth of carrageenan-induced paw edema after 30 min (reference value: 1.27 +/- 0.043%); format: functional
Rattus norvegicus [3] = assay: Anti-inflammatory activity in Rattus norvegicus Wistar albino (rat) assessed as inhibition of carrageenan-induced paw edema after 90 min (reference value: 38.7%)
Rattus norvegicus [4] = assay: Anti-inflammatory activity in Rattus norvegicus Wistar albino (rat) assessed as inhibition of carrageenan-induced paw edema after 30 min (reference value: 30.1%); format: functional
Rattus norvegicus [5] = assay: Anti-inflammatory activity in Rattus norvegicus Wistar albino (rat) assessed as inhibition of carrageenan-induced paw edema after 180 min (reference value: 22.3%); format: functional

| Compound | Activity (Rattus norvegicus [1]) [%] | Activity (Rattus norvegicus [2]) [%] | inhibition (INH) (Rattus norvegicus [3]) [%] | inhibition (INH) (Rattus norvegicus [4]) [%] | inhibition (INH) (Rattus norvegicus [5]) [%] |
| --- | --- | --- | --- | --- | --- |
| COC(=O)c1c(C)nn(-c2ccccc2)c1OCCCOc1c(C(=O)OC)c(C)nn1-c1ccccc1 | 1.49 | 1.34 | 24.4 | 15.1 | 17.9 |
| COC(=O)c1c(C)nn(-c2ccccc2)c1OCCCN1C(=O)c2ccccc2C1=O | 1.39 | 1.25 | 4.8 | 5.9 | 1.7 |
| CCOC(=O)c1c(C)nn(-c2ccccc2)c1OCCCN1C(=O)c2ccccc2C1=O | 1.18 | 1.11 | 44.7 | 38.9 | 39.3 |
| COC(=O)c1c(C)nn(-c2ccccc2)c1OCCCn1c(C)cc(C)c(C#N)c1=O | 1.03 | 0.94 | 29.7 | 17.6 | 18.5 |
| CCOC(=O)c1c(C)nn(-c2ccccc2)c1OCCCn1c(C)cc(C)c(C#N)c1=O | 1.16 | 1.05 | 28.5 | 22.4 | 20.4 |
| COC(=O)c1c(C)nn(-c2ccccc2)c1OCCCOc1nc(C)cc(C)c1C#N | 0.92 | 0.81 | 28.7 | 16.8 | 24.9 |
| CCOC(=O)c1c(C)nn(-c2ccccc2)c1OCCCOc1nc(C)cc(C)c1C#N | 1.18 | 1.22 | 24.6 | 21.4 | 16.8 |
| CS(=O)(=O)Nc1ccc([N+](=O)[O-])cc1Oc1ccccc1 [NIMESULIDE] | 1.25 | 1.29 | 7.9 | 10.8 | 2.54 |
